Results: patent US12447137B2, “Composition for prevention, amelioration, or treatment of cancer” (EWHA UNIVERSITY—INDUSTRY COLLABORATION FOUNDATION, priority 2019, dated 2025)

What was measured:
[1] = test system: secreted MMP2 and MMP9; experiment: Secreted MMP2 and MMP9 levels, TGF-β1-treated BT549 cells; assay type: cell-based, human; settings: BT549, with TGF-β1; FIG. 7B
Experimental: (§1) The culture medium of the breast cancer cell line of Experimental Method 1 was replaced with a serum-free medium. Then, the cells were treated with 2 ng/mL of TGF-β1 and the compound of Preparation Example 6 and cultured for 20 to 24 hours. Thereafter, as described in Experimental Method 3, the expression level of the protein was measured using an antibody specific for the EMT-related protein.

[2] = test system: p-AMPK (Thr172); experiment: AMPK activation by p-AMPK (Thr172) Western blot in pancreatic cancer cell lines; assay type: cell-based, human; settings: 10 μM, 12 hours, compared to untreated group
Experimental: (§2) [3-2] The three breast cancer cell lines (4T1, BT549, and MDA-MB-231) of Experimental Method 1 were treated with each of the compound of Production Example 6 and 13 compounds, including the compounds of Production Examples 1 to 5 and 8 to 15 having a similar structure (YE-01, 02, 03, 04, 05, 08, 09, 10, 11, 12, 13, 14 and 15), at a concentration of 10 μM, and then cultured for 24 hours. In addition, each of two types of gastric cancer cell lines, brain cancer cell lines and pancreatic cancer cell lines was treated with the compound of Production Example 6 or the compound of Production Example 8 having a similar structure at a concentration of 10 μM and then cultured for 12 hours. Thereafter, the cells were harvested and lysed in RIPA buffer, and the protein was electrophoresed by SDS-PAGE, and then the expression level of the protein was analyzed using antibodies specific for AMPK and phospho-AMPK (Thr172). GAPDH or β-actin was used as a loading control for protein quantification.

[3] = test system: 4T1-luc xenograft (flank, s.c.); experiment: Tumor regression in xenograft animal model; assay type: in vivo, mouse; settings: 4 mg/kg tail vein (IV) once every 3 days, 6 times; compared to Vehicle; FIG. 8A, 8B
From the text: (§3) After 4-week-old athymic nude mice (female) were purchased, only healthy mice were selected while the mice were adapted to the environment of the animal breeding room for 7 days. For identification of each mouse, the ears were marked using an ear punch. In addition, the breeding box was identified by attaching a mouse identification card describing the test number, test substance name, test item, receipt date, test date, test content, and the person in charge of the test. The environment of the animal breeding room was maintained at a temperature of 22±3° C., a relative humidity of 50±20%, 10 to 15 ventilations/hour, a 12-hour light (8:30 to 20:30)/dark cycle, and an illuminance of 150 to 300 lux. In addition, the animals were fed feed and drinking water during the breeding period, and quarantined during the acclimatization and testing periods. […]
(§4) During a period ranging from the day the mouse breast cancer cell line 4T1-luc was injected to the end of the experiment (dissection date), the tumor volume was measured every day. […] In order to confirm the tumor regression effect, the volume of the tumor was measured before administration of the compound of Production Example 6, and at day 28 after the first administration of the compound of Production Example 6, the animals were euthanized, and the primary tumors were excised and their volumes were compared.

[4] = test system: 4T1 cell line; experiment: Flow cytometry assay (Annexin V / PI); assay type: cell-based, mouse; settings: 4T1, 0 to 30 μM, 24 hours; FIG. 6
Experimental: (§5) The breast cancer cell line of Experimental Method 1 was treated with the compound of Production Example 6 at a concentration of 0 to 30 μM and cultured for 24 hours. Thereafter, the cultured cells were detached by trypsin, and then double-stained with Annexin V; recognizing apoptosis) and PI (propidium iodide; recognizing cell necrosis), and then the pattern and level of apoptosis were measured using flow cytometry.

[5] = test system: EMT protein markers α-SMA, Vimentin, ZEB-1 and Slug; experiment: EMT protein marker Western blot, TGF-β1-treated 4T1 cells; assay type: cell-based, mouse; settings: 4T1, with TGF-β1; FIG. 7A
Experimental: as §1

[6] = test system: p-AMPK (Thr172); experiment: AMPK activation by p-AMPK (Thr172) Western blot in BT549 cells; assay type: cell-based, human; settings: BT549, 10 μM, 24 hours; FIG. 3B
Experimental: (§6) [3-1] The breast cancer cell line of Experimental Method 1 above was treated with the compound of Production Example 6 at a concentration of 0 to 30 μM, and then cultured for 24 hours. Thereafter, the cells were harvested and lysed in RIPA buffer, and the protein was electrophoresed by SDS-PAGE, and then the expression level of the protein was analyzed using antibodies specific for AMPK and phospho-AMPK (Thr172). GAPDH or β-actin was used as a loading control for protein quantification.
as §2, with “In addition, each of two types of gastric cancer cell lines, brain cancer cell lines and pancreatic cancer cell lines was treated with the compound of Production Example 6 or the compound of Production Example 8 having a similar structure at a concentration of 10 μM and then cultured for 12 hours.” left out

[7] = test system: p-AMPK (Thr172); experiment: AMPK activation by p-AMPK (Thr172) Western blot in 4T1 cells; assay type: cell-based, mouse; settings: 24 hours
Experimental: as §6, §2

[8] = test system: p-AMPK (Thr172); experiment: AMPK activation by p-AMPK (Thr172) Western blot in brain cancer cell lines; assay type: cell-based, human; settings: 10 μM, 12 hours, compared to untreated group
Experimental: as §2

[9] = test system: MDA-MB-231 cell line; experiment: Flow cytometry assay (Annexin V / PI); assay type: cell-based, human; settings: MDA-MB-231, 0 to 30 μM, 24 hours; FIG. 6
Experimental: as §5

[10] = Body weight / toxicity in xenograft animal model; assay type: in vivo, mouse; settings: 4 mg/kg tail vein (IV) once every 3 days, 6 times; FIG. 8C
From the text: as §3, §4

[11] = test system: 4T1 cell line; experiment: Clonogenic assay; assay type: cell-based, mouse; settings: 4T1, 10 μM; FIG. 2B
Experimental: The breast cancer cell line of Experimental Method 1 was dispensed into a 6-well plate at a density of 1 to 2×10^3 cells/well. After the cells were sufficiently attached, they were treated with the compound of Production Example 6 at a concentration of 0 to 30 μM and cultured for 10 days to 14 days. Next, the cultured cells were fixed with 4% formaldehyde and stained with 1% crystal violet, and the colonies were counted under a microscope.

For COc1ccc(OC)c(/C=C/C(=O)c2ccc(NS(=O)(=O)c3ccc(Cl)cc3)cc2)c1 [Production Example 6, (E)-4-chloro-N-(4-(3-(2,5-dimethoxyphenyl)acryloyl)phenyl)benzenesulfonamide], the “level of secreted MMP2” value [1] was “significantly decreased”, the “level of secreted MMP9” value [1] was “significantly decreased” and the “expression of p-AMPK” value [2] was “increased”. For the same compound, the “volume of the tumor” value [3] was “decreased”, the “cells stained with annexin V or PI” value [4] was “increased in a concentration-dependent manner” and the Slug protein [5] was “decreased”. The Vimentin protein [5] was “decreased”, the ZEB-1 protein [5] was “decreased” and the α-SMA protein [5] was “decreased”. For the same compound, the p-AMPK level [6] was “effectively increased”, the phospho-AMPK protein ([7]; 4T1, 0 to 30 μM, FIG. 5) was “increased in a concentration-dependent manner” and the p-AMPK level ([7]; 4T1, 10 μM, FIG. 3B) was “effectively increased”. For the same compound, the “expression of p-AMPK” value [8] was “increased”, the “cells stained with annexin V or PI” value [9] was “increased in a concentration-dependent manner” and the “weight loss depending on the breeding time” value [10] was “no weight loss”. For the same compound, the colony formation [11] was “significantly reduced”.
